# Data taken from patent publication US6019959A, “Oligomeric compounds that contain perfluoroalkyl, process for their production, and their use in NMR diagnosis” (Schering Aktiengesellschaft, priority 1998, dated 2000).
# Entries after “also recorded” stand apart in the source; their conditions may differ. Where two headings read alike, the source gives them in different places.
# Assays:
# [1] = Determination of the T1-relaxivity with a Minispec pc 20 in human plasma; format: physicochemical; settings: for R^1 (T^1-relaxivity): 0.47 T (20 MHz), 37° C., human plasma, normalized to one metal atom; for relaxivity r1,plasm: plasma
# Protocol: Determination of the T^1 -Relaxivity of Selected Compounds
# The relaxivity of the following compounds was determined
# with a Minispec pc 20 (20 MHz, 0.47 T) at 37° C. in human plasma
# and compared to that of Gd-DTPA-polylysine and Magnevist^(R) as
# comparison substances. Since the substances according to the
# invention contain more than one metal atom, the relaxivity was
# normalized to one metal atom for purposes of comparison.
# [2] = rat, in vivo; cited from earlier work
# [3] = cited from earlier work
# [4] = In-vivo comparison with an intravascular and an extracellular contrast medium in blocked kidneys (diffusibility); set-up: species or system rats; settings: for Percentage of the dose that remains in the blood space: i.v., blocked renal vessels, compound 2 set at 100%
# Protocol: As test animals, three 250 g male (Schering-SPF) rats were used. The renal vessels in the animals were blocked to prevent renal elimination and, assuming that fecal elimination is negligible, to obtain a measure of the diffusibility of the formulation according to the invention from the blood into the surrounding tissue. 0.5 ml (in each case 10 mmol/l) of the following contrast medium solution was intravenously administered per animal: a mixture consisting of 1 part each of the compound of Example 1g, named compound 1 below, of intravascular contrast medium Eu-DTPA-albumin, named compound 2 below and of extracellular contrast medium Dy-DTPA, named compound 3 below. Via a catheter in the common carotid artery, blood samples were taken at the following times: 15, 30, 45, 60, 90 seconds; 3, 5, 10, 15 minutes p.i. In the blood samples that were obtained, in each case the concentrations of gadolinium (Gd), europium (Eu) and dysprosium (Dy) were measured in parallel using atom emission spectrometry (ICP-AES). The proportion of the intravascular contrast medium compound 2 (Eu) that remains in the blood space was set at 100%. It was possible to compare the proportion of the formulation according to the invention of compound 1 (Gd) and compound 3 (Dy, extracellular comparison substance) that remained in the blood space by the different labeling in the same animal, and the proportion was set as a percentage of the concentration of compound 2.
# [5] = Blood elimination kinetics after one-time intravenous administration; format: in vivo, rats; settings: for Distribution volume Vss (MEAN) / Elimination half-life tβ (MEAN) / Total clearance CLtot (MEAN) / tα (MEAN): two-compartment model, n=3; for distribution volume in comparison to Dy-DTPA / elimination from the blood in comparison to Dy-DTPA: i.v., rats
# Protocol: For this purpose, after one-time intravenous administration (via a caudal vein) of the substances (dose: ≈100 μmol of metal per kg of body weight), the substance concentration in the blood (based on the Gd or Dy content) was determined over a period of up to 120 minutes p.i. using ICP-AES. The pharmacokinetic parameters: distribution volume (Vss), total clearance (CLtot) and elimination half-life (tb) were calculated with a special computer program (TOPFIT 2.0; Thomae, Schering, Godecke), whereby a two-compartment distribution model was used as a basis.
# The Gd and Dy contents in the blood were determined using ICP-AES.
# For this purpose, after one-time intravenous administration (via a caudal vein) of the substances (dose: ≈100 μmol of metal per kg of body weight), the substance concentration in the blood (based on the metal content) was determined over a period of up to 120 minutes p.i. using ICP-AES. The pharmacokinetic parameters: distribution volume (Vss), total clearance (CLtot) and elimination half-life (tb) were calculated with a special computer program (TOPFIT 2.0; Thomae, Schering, Godecke), whereby a two-compartment distribution model was used as a basis.
# [6] = Contrast-medium-supported MR angiography; format: in vivo, rats; settings: one-time i.v. 50 or 100 μmol/kg, 2.0 tesla
# Protocol: The studies on contrast-medium-supported MR angiography were performed on an experimental MRT system (SISCO SIS 85, 2.0 tesla) with a 3 D FLASH technique (10/2.6/40°).
# To determine the effectiveness of contrast media for visualizing blood vessels, anesthetized (Rompun®+Ketavet®, 1+1, v/v; ≈1 ml per kg of body weight, i.m.) rats (Han. Wistar; ≈200 g of body weight) were studied by MR tomography.
# The MIP (maximum intensity projection) images were calculated from the 3 D FLASH experiments before (left) and directly after one-time i.v. administration of 50 μmol/kg (center) or 100 μmol/kg (right) of the substance of Example 1g.
# [7] = Lymph node concentration in guinea pigs after subcutaneous administration (ICP-AES); format: in vivo, guinea pig; settings: 10 μmol/kg s.c., MW±SD, n=3
# Text: The compounds according to the invention meet all of the requirements that are imposed by contrast media in indirect NMR lymphography: good local compatibility, quick removal from the injection site, quick and as complete an elimination as possible from the entire organism. They also show a high concentration over several lymph node stations and thus allow relevant diagnostic assessments. Thus, in the guinea pig model, a high concentration over several lymph node stations (popliteal, inguinal, iliac) after s.c. administration (2.5-10 μmol/kg of body weight, injection in the interdigital spaces of the hind paws) was shown. In especially suitable cases, gadolinium concentrations of, respectively, ≥200 or ≥300 μmol/l were thus obtained in the second (inguinal) and third (iliac) stations. Lymph node concentrations up to 1,000 μmol/l can usually be obtained with the compounds according to the invention.
# The gadolinium complex of Example 19 was studied 30 minutes/90 minutes after subcutaneous administration (10 μmol of total gadolinium/kg of body weight, hind paw s.c.) to stimulated guinea pigs (complete Freund adjuvant; in each case 0.1 ml in the right and left upper and lower legs; 2 weeks before administration of the test substance) to determine their lymph node concentration in three successive lymph node stations (popliteal, inguinal, iliac). In this case, the results that are listed below (determination of gadolinium concentration using ICP-AES) are obtained:
# Gd-Concentration [μmol/l] in three successive lymph node stations 30 and 90 minutes after interstitial administration of 10 μmol/kg (MW±SD, n=3)
# [8] = Retention of the opacifying metal at the injection site; format: in vivo, guinea pig; settings: 10 μmol/kg s.c., MW±SD, n=3
# Text: After s.c. administration of 10 μmol of total gadolinium (Example 19)/kg of body weight in the guinea pig's paw, the retention of metal at the injection site was studied at different times.
# Gd-Concentration [% dose] at the Administration Site (Paw), After Interstitial Administration of 10 μmol/kg (MW±SD, n=3)
# [9] = Elimination of the contrast medium after s.c. administration (metal retention in organs); format: in vivo, guinea pig; settings: 7 d p.i., 10 μmol/kg s.c., MW±SD, n=2
# Text: After subcutaneous administration of 10 μmol of total gadolinium (Example 19)/kg of body weight in the hind paw of the guinea pig, the retention of metal in the liver, in the kidneys and in the spleen was examined 7 days after administration.
# Gd Concentration [% of Dose] in the Liver, Kidneys, Spleen (7 d p.i.) After Interstitial Administration of 10 μmol/kg (MW±SD, n=2)
# [10] = Table 3, i.v. ≈100 μmol metal/kg
# [11] = Table 4, i.v. ≈100 μmol metal/kg
compound,measurement,setting,value
Gd-DTPA-polylysine [reference compound],R^1 (T^1-relaxivity),[1],16.8 L/mmol/s
same,excretion route,[2],excreted through the kidneys unaltered by glomerular filtration
albumin-Gd-DTPA,concentration in the liver tissue,[3]; 24 hours after intravenous injection,~30 % of the dose
same,dose eliminated,[3]; within 24 hours,20 % of the dose
"CC(C(=O)NCC(=O)NCC(=O)N1CCN(C(=O)CNC(=O)CNC(=O)C(C)N2CCN(CC(=O)[O-])CCN(CC(=O)[O-])CCN(CC(=O)[O-])CC2)CCN(C(=O)COCCC(F)(F)C(F)(F)C(F)(F)C(F)(F)C(F)(F)C(F)(F)C(F)(F)C(F)(F)F)CCN(C(=O)CNC(=O)CNC(=O)C(C)N2CCN(CC(=O)[O-])CCN(CC(=O)[O-])CCN(CC(=O)[O-])CC2)CC1)N1CCN(CC(=O)[O-])CCN(CC(=O)[O-])CCN(CC(=O)[O-])CC1.[Gd+3].[Gd+3].[Gd+3] (centres unmarked) [Example 1g, 1,4,7-Tris{,1,4,7-tris(N-carboxylatomethyl)-10-(N-1-methyl-3,6-diaza-2,5,8-trioxo-octane-1,8-diyl)-1,4,7,10-tetraazacyclododecane, Gdcomplex}-10-(N-2H,2H,4H,4H,5H,5H-3-oxa-perfluoro-tridecanoyl)-1,4,7,10-tetraazacyclododecane]",R^1 (T^1-relaxivity),[1],19.5 L/mmol/s
same,"relaxivity r1,plasm",[1],≈ 19.5 l*mmol^-1 *s^-1
same,Percentage of the dose that remains in the blood space,[4]; 30 seconds p.i.,84%
same,Percentage of the dose that remains in the blood space,[4]; 3 minutes p.i.,62%
same,Percentage of the dose that remains in the blood space,[4]; 10 minutes p.i.,44%
same,diffusibility from the vascular space into the surrounding tissue,"[4]; compared with compound 2 and compound 3, listed as compound 1","slower during the entire test period; also recorded: significantly lower compared to the free diffusible, extracellular compound 3"
same,Distribution volume Vss (MEAN),[5]; [10],0.09 Ukg
same,Elimination half-life tβ (MEAN),[5]; [10],2.813 h
same,Total clearance CLtot (MEAN),[5]; [10],0.41 mU (min*kg)
same,tα (MEAN),[5]; [10],4.06 min
same,distribution volume in comparison to Dy-DTPA,[5],smaller distribution volume
same,elimination from the blood in comparison to Dy-DTPA,[5],significantly slower elimination from the blood
same,"signal in the blood vessels in MR angiography (3 D FLASH, MIP)",[6],pronounced signal increase in the blood vessels
"1,4,7-Tris{1,4,7-tris(N-carboxylatomethyl)-10-[N-(4,7-diaza-3,6,9-trioxo)-nonane-2,9-diyl]-1,4,7,10-tetraazacyclododecane, Gd complex}-10-[N-acetyl-(2-amino-N-ethyl-N-perfluoro-octylsulfonyl)]-1,4,7,10-tetraazacyclododecane [Example 19]",R^1 (T^1-relaxivity),[1],21.4 L/mmol/s
same,"relaxivity r1,plasm",[1],≈ 19.5 l*mmol^-1 *s^-1
same,concentration,"[7]; 30 minutes p.i., read-out: Gd concentration, blood",24 ± 3 µM
same,concentration,"[7]; 30 minutes p.i., read-out: Gd concentration, iliac lymph nodes",50 ± 18 µM
same,concentration,"[7]; 30 minutes p.i., read-out: Gd concentration, inguinal profund lymph nodes",43 ± 41 µM
same,concentration,"[7]; 30 minutes p.i., read-out: Gd concentration, popliteal lymph nodes",345 ± 319 µM
same,concentration,"[7]; 30 minutes p.i., read-out: Gd concentration, urine",261 ± 167 µM
same,concentration,"[7]; 90 minutes p.i., read-out: Gd concentration, blood",25 ± 4 µM
same,concentration,"[7]; 90 minutes p.i., read-out: Gd concentration, iliac lymph nodes",20 ± 8 µM
same,concentration,"[7]; 90 minutes p.i., read-out: Gd concentration, inguinal profund lymph nodes",9 ± 2 µM
same,concentration,"[7]; 90 minutes p.i., read-out: Gd concentration, popliteal lymph nodes",75 ± 20 µM
same,concentration,"[7]; 90 minutes p.i., read-out: Gd concentration, urine",348 ± 119 µM
same,Gadolinium concentration at the injection site (paw),[8]; 30 minutes p.i.,48.4 ± 10.4 % of dose
same,Gadolinium concentration at the injection site (paw),[8]; 90 minutes p.i.,8.0 ± 1.7 % of dose
same,Gadolinium concentration at the injection site (paw),[8]; 7 days p.i.,0.7 ± 0.6 % of dose
same,"Gadolinium content in the organs, kidneys",[9],0.06 ± 0.04 % dose
same,"Gadolinium content in the organs, liver",[9],0.09 ± 0.09 % dose
same,"Gadolinium content in the organs, spleen",[9],0.00 ± 0.01 % dose
same,Distribution volume Vss (MEAN),[5]; [11],0.12 Ukg
same,Elimination half-life tβ (MEAN),[5]; [11],1.49 h
same,Total clearance CLtot (MEAN),[5]; [11],0.94 mL·kg·min
same,tα (MEAN),[5]; [11],2.52 min
same,distribution volume in comparison to Dy-DTPA,[5],smaller distribution volume
same,elimination from the blood in comparison to Dy-DTPA,[5],significantly slower elimination from the blood
